Measurements published in paper PMC4823954, “From fighting depression to conquering tumors: a novel tricyclic thiazepine compound as a tubulin polymerization inhibitor” (Cell Death & Disease, 2016).

Key:
Assay in all cases: KINOMEscan
Assay type in all cases: binding
Details in all cases: read-out: % Ctrl
ARK5 = biological target: T1, ARK5 (Homo sapiens, UniProt O60285)
T1 construct: purchased DiscoveRx KINOMEscan
Outline: (§1)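 Competition binding panel of 442 non-mutant kinases: test compound at 5 and 10 μM competed with an active-site-directed ligand for 1 h with shaking. Bound kinase was eluted with 0.5 μM ligand and quantified by qPCR; %Ctrl = (compound − positive control)/(DMSO − positive control) × 100, lower meaning tighter binding.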

ASK2 = biological target: T2, ASK2 (Homo sapiens, UniProt O95382)
T2 construct: purchased DiscoveRx KINOMEscan
Outline: as §1

BRSK1 = biological target: T3, BRSK1 (Homo sapiens, UniProt Q8TDC3)
T3 construct: purchased DiscoveRx KINOMEscan
Outline: as §1

CAMKK1 = biological target: T4, CAMKK1 (Homo sapiens, UniProt Q8N5S9)
T4 construct: purchased DiscoveRx KINOMEscan
Outline: as §1

CDC2L1 = biological target: T5, CDC2L1 (Homo sapiens, UniProt P21127)
T5 construct: purchased DiscoveRx KINOMEscan
Outline: as §1

CDKL5 = biological target: T6, CDKL5 (Homo sapiens, UniProt O76039)
T6 construct: purchased DiscoveRx KINOMEscan
Outline: as §1

CLK4 = biological target: T7, CLK4 (Homo sapiens, UniProt Q9HAZ1)
T7 construct: purchased DiscoveRx KINOMEscan
Outline: as §1

CSF1R = biological target: T8, CSF1R (Homo sapiens, UniProt P07333)
T8 construct: purchased DiscoveRx KINOMEscan
Outline: as §1

CSNK1D = biological target: T9, CSNK1D (Homo sapiens, UniProt P48730)
T9 construct: purchased DiscoveRx KINOMEscan
Outline: as §1

CSNK1G2 = biological target: T10, CSNK1G2 (Homo sapiens, UniProt P78368)
T10 construct: purchased DiscoveRx KINOMEscan
Outline: as §1

DLK = biological target: T11, DLK (Homo sapiens, UniProt Q12852)
T11 construct: purchased DiscoveRx KINOMEscan
Outline: as §1

DMPK2 = biological target: T12, DMPK2 (Homo sapiens, UniProt Q6DT37)
T12 construct: purchased DiscoveRx KINOMEscan
Outline: as §1

EGFR(G719S) = biological target: T13, EGFR(G719S) (Homo sapiens, UniProt P00533, G719S)
T13 construct: purchased DiscoveRx KINOMEscan

EPHA5 = biological target: T14, EPHA5 (Homo sapiens, UniProt P54756)
T14 construct: purchased DiscoveRx KINOMEscan
Outline: as §1

GSK3B = biological target: T15, GSK3B (Homo sapiens, UniProt P49841)
T15 construct: purchased DiscoveRx KINOMEscan
Outline: as §1

IGF1R = biological target: T16, IGF1R (Homo sapiens, UniProt P08069)
T16 construct: purchased DiscoveRx KINOMEscan
Outline: as §1

IRAK4 = biological target: T17, IRAK4 (Homo sapiens, UniProt Q9NWZ3)
T17 construct: purchased DiscoveRx KINOMEscan
Outline: as §1

JNK1 = biological target: T18, JNK1 (Homo sapiens, UniProt P45983)
T18 construct: purchased DiscoveRx KINOMEscan
Outline: as §1

KIT = biological target: T19, KIT (Homo sapiens, UniProt P10721)
T19 construct: purchased DiscoveRx KINOMEscan
Outline: as §1

MAP4K5 = biological target: T20, MAP4K5 (Homo sapiens, UniProt Q9Y4K4)
T20 construct: purchased DiscoveRx KINOMEscan
Outline: as §1

MLCK = biological target: T21, MLCK (Homo sapiens, UniProt Q32MK0)
T21 construct: purchased DiscoveRx KINOMEscan
Outline: as §1

NEK2 = biological target: T22, NEK2 (Homo sapiens, UniProt P51955)
T22 construct: purchased DiscoveRx KINOMEscan
Outline: as §1

NEK9 = biological target: T23, NEK9 (Homo sapiens, UniProt Q8TD19)
T23 construct: purchased DiscoveRx KINOMEscan
Outline: as §1

PCTK3 = biological target: T24, PCTK3 (Homo sapiens, UniProt Q07002)
T24 construct: purchased DiscoveRx KINOMEscan
Outline: as §1

PDPK1 = biological target: T25, PDPK1 (Homo sapiens, UniProt O15530)
T25 construct: purchased DiscoveRx KINOMEscan
Outline: as §1

PKAC-beta = biological target: T26, PKAC-beta (Homo sapiens, UniProt P22694)
T26 construct: purchased DiscoveRx KINOMEscan
Outline: as §1

PKN2 = biological target: T27, PKN2 (Homo sapiens, UniProt Q16513)
T27 construct: purchased DiscoveRx KINOMEscan
Outline: as §1

PLK3 = biological target: T28, PLK3 (Homo sapiens, UniProt Q9H4B4)
T28 construct: purchased DiscoveRx KINOMEscan
Outline: as §1

PLK4 = biological target: T29, PLK4 (Homo sapiens, UniProt O00444)
T29 construct: purchased DiscoveRx KINOMEscan
Outline: as §1

RIPK5 = biological target: T30, RIPK5 (Homo sapiens, UniProt Q6XUX3)
T30 construct: purchased DiscoveRx KINOMEscan
Outline: as §1

SIK2 = biological target: T31, SIK2 (Homo sapiens, UniProt Q9H0K1)
T31 construct: purchased DiscoveRx KINOMEscan
Outline: as §1

T17 sequence (Q9NWZ3 whole entry): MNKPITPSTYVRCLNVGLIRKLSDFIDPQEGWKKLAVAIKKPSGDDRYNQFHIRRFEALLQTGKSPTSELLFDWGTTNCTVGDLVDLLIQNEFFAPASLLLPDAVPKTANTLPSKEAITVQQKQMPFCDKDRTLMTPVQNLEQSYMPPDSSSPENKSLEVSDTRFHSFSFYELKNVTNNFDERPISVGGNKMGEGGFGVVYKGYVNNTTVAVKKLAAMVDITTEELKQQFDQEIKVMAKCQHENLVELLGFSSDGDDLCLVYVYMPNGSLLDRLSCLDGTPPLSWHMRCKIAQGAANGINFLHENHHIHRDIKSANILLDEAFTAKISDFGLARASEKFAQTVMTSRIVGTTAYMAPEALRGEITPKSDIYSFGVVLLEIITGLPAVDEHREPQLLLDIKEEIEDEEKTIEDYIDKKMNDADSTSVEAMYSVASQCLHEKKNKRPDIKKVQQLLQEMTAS
T15 sequence (P49841 whole entry): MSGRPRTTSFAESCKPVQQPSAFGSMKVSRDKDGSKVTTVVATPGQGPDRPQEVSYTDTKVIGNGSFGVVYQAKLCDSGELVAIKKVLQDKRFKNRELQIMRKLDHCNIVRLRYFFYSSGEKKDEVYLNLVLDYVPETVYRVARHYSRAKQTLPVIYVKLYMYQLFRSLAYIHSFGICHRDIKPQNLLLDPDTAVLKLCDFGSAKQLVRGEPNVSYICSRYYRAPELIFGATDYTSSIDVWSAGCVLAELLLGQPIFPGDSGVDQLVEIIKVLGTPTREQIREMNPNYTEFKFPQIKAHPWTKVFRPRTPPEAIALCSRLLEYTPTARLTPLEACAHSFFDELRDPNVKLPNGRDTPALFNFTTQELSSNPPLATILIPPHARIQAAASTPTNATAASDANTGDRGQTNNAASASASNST
T21 sequence (Q32MK0 whole entry): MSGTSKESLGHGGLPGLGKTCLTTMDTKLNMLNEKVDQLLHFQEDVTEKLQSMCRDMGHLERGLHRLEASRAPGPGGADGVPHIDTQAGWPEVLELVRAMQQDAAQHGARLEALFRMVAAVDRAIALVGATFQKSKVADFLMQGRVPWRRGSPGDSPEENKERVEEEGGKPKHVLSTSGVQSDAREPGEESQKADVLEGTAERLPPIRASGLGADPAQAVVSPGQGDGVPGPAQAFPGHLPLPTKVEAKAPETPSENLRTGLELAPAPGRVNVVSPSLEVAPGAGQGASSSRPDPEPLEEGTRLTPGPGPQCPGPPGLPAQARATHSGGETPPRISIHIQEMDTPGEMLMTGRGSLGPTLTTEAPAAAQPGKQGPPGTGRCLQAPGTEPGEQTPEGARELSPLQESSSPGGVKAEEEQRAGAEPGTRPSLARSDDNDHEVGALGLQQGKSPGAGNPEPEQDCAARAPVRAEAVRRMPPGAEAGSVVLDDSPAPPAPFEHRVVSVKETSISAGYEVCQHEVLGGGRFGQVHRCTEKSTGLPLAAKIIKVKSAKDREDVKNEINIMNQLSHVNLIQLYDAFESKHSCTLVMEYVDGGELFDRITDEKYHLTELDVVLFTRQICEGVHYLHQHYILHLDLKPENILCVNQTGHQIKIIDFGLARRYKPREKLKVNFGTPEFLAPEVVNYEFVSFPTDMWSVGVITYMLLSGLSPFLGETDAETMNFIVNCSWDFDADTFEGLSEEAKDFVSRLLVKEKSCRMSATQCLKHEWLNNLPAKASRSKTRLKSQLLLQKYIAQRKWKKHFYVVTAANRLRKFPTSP
T4 sequence (Q8N5S9 whole entry): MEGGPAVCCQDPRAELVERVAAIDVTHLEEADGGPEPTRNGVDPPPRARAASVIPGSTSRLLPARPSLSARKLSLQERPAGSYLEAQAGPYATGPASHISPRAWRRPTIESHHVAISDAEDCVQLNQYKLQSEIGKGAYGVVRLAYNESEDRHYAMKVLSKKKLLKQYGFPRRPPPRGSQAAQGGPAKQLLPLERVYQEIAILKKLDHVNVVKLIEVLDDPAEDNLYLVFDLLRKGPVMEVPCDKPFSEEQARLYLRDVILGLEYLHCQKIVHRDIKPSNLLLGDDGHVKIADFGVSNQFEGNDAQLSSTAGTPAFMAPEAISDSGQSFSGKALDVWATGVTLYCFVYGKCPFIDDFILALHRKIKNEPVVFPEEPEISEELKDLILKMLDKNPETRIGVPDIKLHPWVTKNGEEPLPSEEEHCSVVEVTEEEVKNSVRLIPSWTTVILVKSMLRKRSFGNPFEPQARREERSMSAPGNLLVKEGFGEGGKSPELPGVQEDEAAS
T22 sequence (P51955 whole entry): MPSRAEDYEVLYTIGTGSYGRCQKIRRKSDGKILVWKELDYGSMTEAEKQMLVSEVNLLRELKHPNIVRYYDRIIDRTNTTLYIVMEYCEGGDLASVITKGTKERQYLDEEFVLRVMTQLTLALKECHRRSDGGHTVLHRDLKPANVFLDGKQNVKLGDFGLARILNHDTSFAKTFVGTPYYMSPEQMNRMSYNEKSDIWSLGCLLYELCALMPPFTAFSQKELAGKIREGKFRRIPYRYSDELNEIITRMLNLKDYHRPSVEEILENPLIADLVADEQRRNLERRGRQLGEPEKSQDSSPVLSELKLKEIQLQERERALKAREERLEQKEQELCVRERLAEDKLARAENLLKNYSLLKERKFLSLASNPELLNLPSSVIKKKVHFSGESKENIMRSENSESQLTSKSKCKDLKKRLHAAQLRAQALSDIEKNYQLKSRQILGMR
T19 sequence (P10721 26-976): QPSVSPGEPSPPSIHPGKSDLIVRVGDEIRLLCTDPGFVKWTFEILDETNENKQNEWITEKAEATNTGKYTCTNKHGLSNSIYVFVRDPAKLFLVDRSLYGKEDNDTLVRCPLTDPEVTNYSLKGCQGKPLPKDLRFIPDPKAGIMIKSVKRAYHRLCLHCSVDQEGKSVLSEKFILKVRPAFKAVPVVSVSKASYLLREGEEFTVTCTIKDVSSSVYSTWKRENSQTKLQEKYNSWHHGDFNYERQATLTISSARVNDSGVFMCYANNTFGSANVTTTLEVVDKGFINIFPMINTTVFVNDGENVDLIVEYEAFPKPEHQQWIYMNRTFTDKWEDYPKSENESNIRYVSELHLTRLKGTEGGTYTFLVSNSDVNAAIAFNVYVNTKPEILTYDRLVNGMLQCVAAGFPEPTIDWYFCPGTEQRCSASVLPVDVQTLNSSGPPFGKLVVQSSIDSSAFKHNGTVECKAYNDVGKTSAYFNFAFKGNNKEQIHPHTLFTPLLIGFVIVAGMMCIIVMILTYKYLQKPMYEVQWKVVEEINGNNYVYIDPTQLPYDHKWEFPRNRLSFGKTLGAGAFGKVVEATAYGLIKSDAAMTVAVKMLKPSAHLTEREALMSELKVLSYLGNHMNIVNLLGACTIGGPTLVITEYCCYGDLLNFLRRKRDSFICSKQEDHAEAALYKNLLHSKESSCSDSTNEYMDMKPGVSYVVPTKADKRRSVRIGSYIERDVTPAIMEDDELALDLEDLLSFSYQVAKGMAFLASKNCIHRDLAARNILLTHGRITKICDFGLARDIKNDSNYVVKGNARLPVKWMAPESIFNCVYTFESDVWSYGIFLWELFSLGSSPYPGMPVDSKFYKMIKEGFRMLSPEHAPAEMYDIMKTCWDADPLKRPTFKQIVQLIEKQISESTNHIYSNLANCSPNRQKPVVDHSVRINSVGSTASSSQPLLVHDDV
T16 sequence (P08069 31-1367): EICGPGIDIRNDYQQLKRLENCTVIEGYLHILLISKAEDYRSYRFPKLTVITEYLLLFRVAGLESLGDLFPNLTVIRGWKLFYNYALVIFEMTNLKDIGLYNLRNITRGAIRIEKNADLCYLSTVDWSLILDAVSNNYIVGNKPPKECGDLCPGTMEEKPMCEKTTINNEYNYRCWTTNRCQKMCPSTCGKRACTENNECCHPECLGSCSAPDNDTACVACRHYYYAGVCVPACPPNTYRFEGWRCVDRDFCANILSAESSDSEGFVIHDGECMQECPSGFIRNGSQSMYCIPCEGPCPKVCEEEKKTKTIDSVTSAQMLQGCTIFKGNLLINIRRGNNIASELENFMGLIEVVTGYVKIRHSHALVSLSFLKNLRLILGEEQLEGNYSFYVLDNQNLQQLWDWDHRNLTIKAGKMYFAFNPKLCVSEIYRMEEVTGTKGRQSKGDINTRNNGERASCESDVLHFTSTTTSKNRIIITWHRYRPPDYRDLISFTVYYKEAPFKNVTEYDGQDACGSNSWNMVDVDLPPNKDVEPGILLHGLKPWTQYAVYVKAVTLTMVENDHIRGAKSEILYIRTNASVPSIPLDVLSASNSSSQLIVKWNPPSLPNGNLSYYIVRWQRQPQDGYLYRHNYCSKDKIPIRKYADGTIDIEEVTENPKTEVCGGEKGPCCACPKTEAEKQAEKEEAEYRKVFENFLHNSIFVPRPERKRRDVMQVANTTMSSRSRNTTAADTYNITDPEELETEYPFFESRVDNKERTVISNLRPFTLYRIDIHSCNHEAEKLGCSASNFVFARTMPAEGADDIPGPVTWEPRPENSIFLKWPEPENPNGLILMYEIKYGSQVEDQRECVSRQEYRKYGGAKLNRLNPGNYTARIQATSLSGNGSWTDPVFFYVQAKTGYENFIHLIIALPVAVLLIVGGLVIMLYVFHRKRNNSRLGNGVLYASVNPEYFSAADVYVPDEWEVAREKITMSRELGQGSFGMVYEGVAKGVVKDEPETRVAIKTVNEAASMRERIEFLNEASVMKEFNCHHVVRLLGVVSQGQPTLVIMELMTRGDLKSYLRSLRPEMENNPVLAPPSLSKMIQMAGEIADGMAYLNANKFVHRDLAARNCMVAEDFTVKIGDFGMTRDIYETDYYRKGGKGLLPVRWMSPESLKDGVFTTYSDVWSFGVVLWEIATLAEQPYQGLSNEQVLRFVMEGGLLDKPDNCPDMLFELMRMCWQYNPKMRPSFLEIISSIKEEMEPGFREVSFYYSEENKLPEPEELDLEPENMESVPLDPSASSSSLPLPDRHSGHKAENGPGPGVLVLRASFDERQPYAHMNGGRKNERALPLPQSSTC

For Cc1ccc(C2=Nc3cccnc3S(=O)(=O)c3ccccc32)cc1 [TBPT, 6-(p-tolyl)benzo[f] pyrido[2,3-b][1,4] thiazepine 11,11-dioxide], which remaining binding at 5 µM (ARK5; 5 μM) is on record?
The remaining binding at 5 µM was 100%.

And the remaining binding at 10 µM (ARK5; 10 μM)?
The remaining binding at 10 µM was 100%.

And the remaining binding at 5 µM (ASK2; 5 μM)?
Its remaining binding at 5 µM is 82%.

And the remaining binding at 10 µM (ASK2; 10 μM)?
Its remaining binding at 10 µM is 100%.

And the remaining binding at 5 µM (BRSK1; 5 μM)?
The remaining binding at 5 µM was 100%.

And the remaining binding at 10 µM (BRSK1; 10 μM)?
The remaining binding at 10 µM was 97%.

What about the remaining binding at 5 µM (CAMKK1; 5 μM) of the same molecule?
Its remaining binding at 5 µM is 100%.

And the remaining binding at 10 µM (CAMKK1; 10 μM)?
The remaining binding at 10 µM was 92%.

What about the remaining binding at 5 µM (CDC2L1; 5 μM) of the same molecule?
The remaining binding at 5 µM was 99%.

And the remaining binding at 10 µM (CDC2L1; 10 μM)?
The remaining binding at 10 µM was 100%.

And the remaining binding at 5 µM (CDKL5; 5 μM)?
Its remaining binding at 5 µM is 100%.

And the remaining binding at 10 µM (CDKL5; 10 μM)?
Its remaining binding at 10 µM is 100%.

What about the remaining binding at 5 µM (CLK4; 5 μM) of the same molecule?
The remaining binding at 5 µM was 93%.

What about the remaining binding at 10 µM (CLK4; 10 μM) of the same molecule?
Its remaining binding at 10 µM is 96%.

What about the remaining binding at 5 µM (CSF1R; 5 μM) of the same molecule?
The remaining binding at 5 µM was 93%.

And the remaining binding at 10 µM (CSF1R; 10 μM)?
Its remaining binding at 10 µM is 100%.

And the remaining binding at 5 µM (CSNK1D; 5 μM)?
Its remaining binding at 5 µM is 98%.

What about the remaining binding at 10 µM (CSNK1D; 10 μM) of the same molecule?
The remaining binding at 10 µM was 90%.

What about the remaining binding at 5 µM (CSNK1G2; 5 μM) of the same molecule?
The remaining binding at 5 µM was 100%.

And the remaining binding at 10 µM (CSNK1G2; 10 μM)?
The remaining binding at 10 µM was 100%.

What about the remaining binding at 5 µM (DLK; 5 μM) of the same molecule?
The remaining binding at 5 µM was 88%.

And the remaining binding at 10 µM (DLK; 10 μM)?
The remaining binding at 10 µM was 81%.

What about the remaining binding at 5 µM (DMPK2; 5 μM) of the same molecule?
The remaining binding at 5 µM was 100%.

What about the remaining binding at 10 µM (DMPK2; 10 μM) of the same molecule?
The remaining binding at 10 µM was 83%.

What about the remaining binding at 5 µM (EGFR(G719S); 5 μM) of the same molecule?
The remaining binding at 5 µM was 83%.

And the remaining binding at 10 µM (EGFR(G719S); 10 μM)?
The remaining binding at 10 µM was 94%.

What about the remaining binding at 5 µM (EPHA5; 5 μM) of the same molecule?
Its remaining binding at 5 µM is 92%.

And the remaining binding at 10 µM (EPHA5; 10 μM)?
Its remaining binding at 10 µM is 100%.

What about the remaining binding at 5 µM (GSK3B; 5 μM) of the same molecule?
The remaining binding at 5 µM was 89%.

And the remaining binding at 10 µM (GSK3B; 10 μM)?
Its remaining binding at 10 µM is 100%.

And the remaining binding at 5 µM (IGF1R; 5 μM)?
Its remaining binding at 5 µM is 100%.

And the remaining binding at 10 µM (IGF1R; 10 μM)?
The remaining binding at 10 µM was 79%.

What about the remaining binding at 5 µM (IRAK4; 5 μM) of the same molecule?
Its remaining binding at 5 µM is 100%.

What about the remaining binding at 10 µM (IRAK4; 10 μM) of the same molecule?
The remaining binding at 10 µM was 88%.

And the remaining binding at 5 µM (JNK1; 5 μM)?
The remaining binding at 5 µM was 100%.

What about the remaining binding at 10 µM (JNK1; 10 μM) of the same molecule?
The remaining binding at 10 µM was 85%.

And the remaining binding at 5 µM (KIT; 5 μM)?
Its remaining binding at 5 µM is 72%.

What about the remaining binding at 10 µM (KIT; 10 μM) of the same molecule?
Its remaining binding at 10 µM is 100%.

What about the remaining binding at 5 µM (MAP4K5; 5 μM) of the same molecule?
Its remaining binding at 5 µM is 100%.

And the remaining binding at 10 µM (MAP4K5; 10 μM)?
Its remaining binding at 10 µM is 85%.

What about the remaining binding at 5 µM (MLCK; 5 μM) of the same molecule?
Its remaining binding at 5 µM is 92%.

What about the remaining binding at 10 µM (MLCK; 10 μM) of the same molecule?
Its remaining binding at 10 µM is 95%.

And the remaining binding at 5 µM (NEK2; 5 μM)?
The remaining binding at 5 µM was 92%.

And the remaining binding at 10 µM (NEK2; 10 μM)?
Its remaining binding at 10 µM is 81%.

What about the remaining binding at 5 µM (NEK9; 5 μM) of the same molecule?
The remaining binding at 5 µM was 100%.

And the remaining binding at 10 µM (NEK9; 10 μM)?
The remaining binding at 10 µM was 88%.

What about the remaining binding at 5 µM (PCTK3; 5 μM) of the same molecule?
The remaining binding at 5 µM was 82%.

And the remaining binding at 10 µM (PCTK3; 10 μM)?
The remaining binding at 10 µM was 100%.

What about the remaining binding at 5 µM (PDPK1; 5 μM) of the same molecule?
The remaining binding at 5 µM was 100%.

And the remaining binding at 10 µM (PDPK1; 10 μM)?
Its remaining binding at 10 µM is 100%.

What about the remaining binding at 5 µM (PKAC-beta; 5 μM) of the same molecule?
Its remaining binding at 5 µM is 96%.

What about the remaining binding at 10 µM (PKAC-beta; 10 μM) of the same molecule?
The remaining binding at 10 µM was 100%.

What about the remaining binding at 5 µM (PKN2; 5 μM) of the same molecule?
Its remaining binding at 5 µM is 100%.

What about the remaining binding at 10 µM (PKN2; 10 μM) of the same molecule?
The remaining binding at 10 µM was 95%.

What about the remaining binding at 5 µM (PLK3; 5 μM) of the same molecule?
The remaining binding at 5 µM was 95%.

What about the remaining binding at 10 µM (PLK3; 10 μM) of the same molecule?
Its remaining binding at 10 µM is 75%.

And the remaining binding at 5 µM (PLK4; 5 μM)?
Its remaining binding at 5 µM is 100%.

And the remaining binding at 10 µM (PLK4; 10 μM)?
The remaining binding at 10 µM was 92%.

What about the remaining binding at 5 µM (RIPK5; 5 μM) of the same molecule?
Its remaining binding at 5 µM is 58%.

And the remaining binding at 10 µM (RIPK5; 10 μM)?
The remaining binding at 10 µM was 83%.

And the remaining binding at 5 µM (SIK2; 5 μM)?
The remaining binding at 5 µM was 84%.

What about the remaining binding at 10 µM (SIK2; 10 μM) of the same molecule?
Its remaining binding at 10 µM is 90%.
